# Measurements reported in US3998963A, “Tertiary butyl substituted carbamoyl oxime pesticides” (priority 1975, dated 1976).
# Experiments:
# Format in all cases: in vivo
# [1] = system: bean aphid (Aphis fabae Scop.); assay: Bean Aphid Foliage Spray Test; conditions: foliar, 24 hour holding period, read-out: Insect LD50, Aphid
# Protocol: (§1) Suspensions of the test compouns were prepared by dissolving one gram of compound in 50 milliliters of acetone in which had been dissolved 0.1 gram (10 percent of the weight of compound) of an alkylphenoxy polyethoxyethanol surfactant, as an emulsifying or dispersing agent. The resulting solution was mixed into 150 milliliters of water to give roughly 200 milliliters of a suspension containing the compound in finely divided form. The thus-prepared stock suspension contained 0.5 percent by weight of compound. The test concentrations in parts per million by weight employed in the tests described hereinbelow were obtained by appropriate dilutions of the stock suspension with water. The test procedures were as follows:
# Bean Aphid Foliage Spray Test
# Adults and nymphal stages of the bean aphid (Aphis fabae Scop.) reared on potted dwarf nasturtium plants at 65°-70° F. and 50-70 per cent relative humidity, constituted the test insects. For testing purposes, the number of aphids per pot was standardized to 100-150 by trimming plants containing excess aphids.
# The test compounds were formulated by diluting the stock suspension with water to give a suspension containing 500 parts of test compound per million parts of final formulation.
# The potted plants (one pot per compound tested) infested with 100-150 aphids, were placed on a revolving turntable and sprayed with 100 -110 milliliters of test compound formulation by use of a DeVilbiss spray gun set at 40 psig. air pressure. This application, which lasted 25 seconds, was sufficient to wet the plants to run-off. As a control, 100-110 milliliters of a water-acetone-emulsifier solution containing no test compound were also sprayed on infested plants. After spraying, the pots were placed on their sides on a sheet of white standard mimeograph paper which had peen previously ruled to facilitate counting. Temperature and humidity in the test room during the 24 hour holding period were 65°-70° F. and 50-70 per cent, respectively. Aphids which fell onto the paper and were unable to remain standing after being uprighted were considered dead. Aphids remaining on the plants were observed closely for movement and those which were unable to move the length of the body upon stimulation by prodding were considered dead. Per cent mortality was recorded for various concentration levels.
# [2] = system: two-spotted mite (Tetranychus urticae Koch); assay: Mite Foliage Spray Test; conditions: foliar, 144 h, 6 days, read-out: Insect LD50, Mite
# Protocol: as §1
# Adults and nymphal stage of the two-spotted mite (Tetranychus urticae Koch), reared on Tendergreen bean plants at 80±5 per cent relative humidity, were the test organisms. Infested leaves from a stock culture were placed on the primary leaves of two bean plants 6 to 8 inches in height, growing in a 21/2 inch clay pot. 150-200 Mites, a sufficient number for testing, transferred from the excised leaves to the fresh plants in a period of twenty four hours. Following the twenty four hour transfer period, the excised leaves were removed from the infested plants. The test compounds were formulated by diluting the stock suspension with water to give a suspension containing 500 parts of test compound per million parts of final formulation. The potted plants (one pot per compound) were placed on a revolving turntable and sprayed with 100-110 milliliters of test compound formulation by use of a DeVilbiss spray gun set at 40 psig. air pressure. This application, which lasted 25 seconds, was sufficient to wet the plants to run-off. As a control, 100-110 milliliters of a water solution containing acetone and emulsifier in the same concentrations as the test compound formulation, but containing no test compound, were also sprayed on infested plants. The sprayed plants were held at 80±5 per cent relative humidity for 6 days, after which a mortality count of motile forms was made. Microscopic examination for motile forms was made on the leaves of the test plants. Any individual which was capable of locomotion upon prodding was considered living.
# [3] = system: southern armyworm (Spodoptera eridania, (Cram.)); assay: Southern Armyworm Leaf Spray Bait Test
# Protocol: as §1
# Southern Armyworm Leaf Spray Bait Test
# Larvae of the southern armyworm (Spodoptera eridania, (Cram.)), reared on Tendergreen bean plants at a temperature of 80°±5° F. and a relative humidity of 50±5 per cent, constituted the test insects.
# The test compounds were formulated by diluting the stock suspension with water to give a suspension containing 500 parts of test compound per million parts of final formulation. Potted Tendergreen bean plants of standard height and age were placed on a revolving turntable and sprayed with 100-110 milliliters of test compound formulation by use of a DeVilbiss spray gun set at 10 psig air pressure. This application, which lasted 25 seconds, was sufficient to wet plants to run-off. As a control, 100-110 milliliters of a water-acetone-emulsifier solution containing no test compound were also sprayed on infested plants. When dry, the paired leaves were separated and each one was placed in a 9 centimeter Petri dish lined with moistened filter paper. Five randomly selected larvae were introduced into each dish and the dishes were closed. The closed dishes were labeled and held at 80°-85° F. for 3 days. Although the larvae could easily consume the whole leaf within 24 hours, no more food was added. Larvae which were unable to move the length of the body, even upon stimulation by prodding, were considered dead. Per cent mortality was recorded for various concentration levels.
# (§2) In Table 1 are presented insect and rat toxicity data (bait tests) on a comparative basis of the compounds described above. […] Rat toxicity is also more meaningfully compared on the basis of molar weight LD50 values. The relative efficacy of the parent compounds as compared to the previously known derivatives and as compared to the new compounds of this invention is also shown in Table 1. The ratio of efficacy as contact poisons (immersion/bait) of the compounds tested against Armyworm and House Fly is presented in Table 2 along with the results of the phytotoxicity tests of the compounds on bean, corn, tomato and cotton.
# [4] = system: Mexican bean beetle (Epilachna varivestis, Muls.); assay: Mexican Bean Beetle Leaf Spray Test; conditions: 72 h, 3 days, read-out: Insect LD50, Beetle
# Protocol: as §1
# Mexican Bean Beetle Leaf Spray Test
# Fourth instar lavae of the Mexican bean beetle (Epilachna varivestis, Muls.), reared on Tendergreen bean plants at a temperature of 80°±5° F. and 50±5 per cent relative humidity, were the test insects.
# The test compounds were formulated by diluting the stock suspension with water to give a suspension containing 500 parts of test compound per million parts of final formulation. Potted Tendergreen bean plants of standard height and age were placed on a revolving turntable and sprayed with 100-110 milliliters of test comound formulation by use of a DeVilbiss spray gun set at 10 psig air pressure. This application, which lasted 25 seconds, was sufficient to wet plants to run-off. As a control, 100-110 milliliters of a water-acetone-emulsifier solution containing no test compound were also sprayed on infested plants. When dry, the paired leaves were separated and each was placed in a 9 centimeter Petri dish lined with moistened filter paper. Five randomly selected larvae were introduced into each dish, and the dishes were closed. The closed dishes were labeled and held at a temperature of 80°±5° F, for 3 days. Although the larvae could easily consume the leaf within 24 to 48 hours, no more food was added. Larvae which were unable to move the length of the body, even upon stimulation, were considered dead.
# [5] = system: house flies (Musca domestica, L.); assay: Fly Bait Test; conditions: Musca domestica, 24 hours, read-out: Insect LD50, Housefly
# Protocol: as §1
# Four to six day old adult house flies (Musca domestica, L.), reared according to the specifications of the Chemical Specialities Manufacturing Association (Blue Book, McNair-Dorland Co., N.Y. 1954; pages 243-244, 261) under controlled conditions of 80°±5° F. and 50±5 per cent relative humidity, were the test insects. The flies were immobilized by anesthetizing with carbon dioxide and twenty five immobilized individuals, males and females, were transferred to a cage consisting of a standard food strainer about five inches in diameter which was inverted over a wrapping-paper covered surface. The test compounds were formulated by diluting the stock suspension with a 10 per cent (by weight) sugar solution to give a suspension containing 500 parts of test compound per million parts of final formulation, by weight. Ten milliliters of the test formulation were added to a souffle cup containing a 1-inch square of an absorbent cotton pad. This bait cup was introduced and centered on the blotting paper under the food strainer prior to admitting the anesthetized flies. The caged flies were allowed to feed on the bait for 24 hours, at a temperature of 80°±5° F. and the relative humidity of 50±5 per cent.
# as §2
smiles,measurement,setting,value
CCSC(C)=NOC(=O)N(C)Sc1ccc(C(C)(C)C)cc1 [Compound 10],LC50,[1],5 µg/mL
same,LC50,[2],> 500 µg/mL
same,LC50,"[3]; Spodoptera eridania, 72 h, leaf spray bait, 3 days, read-out: Insect LD50, Armyworm",14 µg/mL
same,"(b) relative efficacy of derivative vs parent compound, Armyworm","[3]; bait, formula of footnote b is drawing 8",1.52
same,LC50,[4],20 µg/mL
same,LC50,[5],13 µg/mL
